According to ChEMBL document CHEMBL1201862, “PubChem BioAssay data set” (2004):
Activity calls are given as the source filed them.

Columns and labels:
Cytochrome P450 2C19 = Cytochrome P450 2C19 (Homo sapiens, UniProt P33261); test: Cytochrome panel assay with activity outcomes. Panel member name: p450-cyp2c19 Compounds with AC50 equal or less than 10 uM are considered active; format: functional
Cytochrome P450 1A2 = target: T1, Cytochrome P450 1A2 (Homo sapiens, UniProt P05177);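 also: PubChem cytochrome P450 panel assay, CYP1A2 panel member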
T1 sequence (P05177 whole entry): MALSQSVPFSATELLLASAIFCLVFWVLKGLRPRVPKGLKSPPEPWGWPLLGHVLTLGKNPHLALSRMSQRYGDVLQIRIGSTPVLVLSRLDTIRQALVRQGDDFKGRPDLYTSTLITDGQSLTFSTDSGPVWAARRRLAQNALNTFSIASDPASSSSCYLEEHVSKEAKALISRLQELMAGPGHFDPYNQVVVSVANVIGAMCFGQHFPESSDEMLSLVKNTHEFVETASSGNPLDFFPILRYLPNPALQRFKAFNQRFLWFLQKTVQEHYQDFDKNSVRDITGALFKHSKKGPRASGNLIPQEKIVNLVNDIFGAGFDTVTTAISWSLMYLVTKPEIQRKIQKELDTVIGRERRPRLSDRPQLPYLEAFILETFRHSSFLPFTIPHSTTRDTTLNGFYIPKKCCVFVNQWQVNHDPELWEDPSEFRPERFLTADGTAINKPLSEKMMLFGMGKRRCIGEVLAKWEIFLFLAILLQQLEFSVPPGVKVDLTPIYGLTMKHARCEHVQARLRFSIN

Cytochrome P450 2C9 = Cytochrome P450 2C9 (Homo sapiens, UniProt P11712)
Sequence of Cytochrome P450 2C9 (P11712 whole entry): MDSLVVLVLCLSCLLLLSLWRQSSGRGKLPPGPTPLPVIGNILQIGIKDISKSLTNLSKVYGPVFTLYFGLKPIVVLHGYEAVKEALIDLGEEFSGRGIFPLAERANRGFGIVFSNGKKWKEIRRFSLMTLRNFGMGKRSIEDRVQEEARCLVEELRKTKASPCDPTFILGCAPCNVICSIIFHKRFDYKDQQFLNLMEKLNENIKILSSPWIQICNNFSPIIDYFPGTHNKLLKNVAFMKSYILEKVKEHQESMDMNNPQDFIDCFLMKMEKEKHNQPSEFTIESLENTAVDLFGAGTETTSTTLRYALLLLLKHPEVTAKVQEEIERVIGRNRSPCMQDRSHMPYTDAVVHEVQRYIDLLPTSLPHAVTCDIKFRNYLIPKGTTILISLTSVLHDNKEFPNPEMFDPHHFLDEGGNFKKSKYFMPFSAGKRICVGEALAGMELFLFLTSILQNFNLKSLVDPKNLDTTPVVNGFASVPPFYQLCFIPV

Cytochrome P450 3A4 = Cytochrome P450 3A4 (Homo sapiens, UniProt P08684);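 also: CYP3A4 tested as one member of a cytochrome P450 panel screen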
Sequence of Cytochrome P450 3A4 (P08684 whole entry): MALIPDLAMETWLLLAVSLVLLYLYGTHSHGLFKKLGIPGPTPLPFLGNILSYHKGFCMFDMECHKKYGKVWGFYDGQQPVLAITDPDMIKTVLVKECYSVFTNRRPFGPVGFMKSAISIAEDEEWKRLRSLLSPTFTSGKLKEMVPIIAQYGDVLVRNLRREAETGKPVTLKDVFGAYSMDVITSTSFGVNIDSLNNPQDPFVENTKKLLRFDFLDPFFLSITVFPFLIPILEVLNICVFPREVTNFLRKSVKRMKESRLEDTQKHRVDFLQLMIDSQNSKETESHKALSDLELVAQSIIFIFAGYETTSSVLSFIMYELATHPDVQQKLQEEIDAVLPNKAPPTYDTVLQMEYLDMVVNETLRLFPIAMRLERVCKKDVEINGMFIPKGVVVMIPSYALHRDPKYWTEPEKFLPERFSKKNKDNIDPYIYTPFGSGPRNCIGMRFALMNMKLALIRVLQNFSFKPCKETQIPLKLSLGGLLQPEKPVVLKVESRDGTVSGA

[1] = Luminescence Cell-Based Dose Confirmation HTS to Identify Activators of 5'UTR Stem-Loop Driven Alpha-Synuclein mRNA Translation in H4 Neuroglioblastoma Cells. [Related pubchem assays: 1829 (Project Summary), 1814 (Primary HTS)]; format: functional
[2] = Luminescence Cell-Based Dose Response HTS to Identify Activators of Luciferase Translation or Activity in H4 […] Cells. [Related pubchem assays: 1829 (Project Summary), 1814 (Primary HTS)]; format: functional
H4 = test: Luminescence Cell-Based Dose Response HTS to Identify Activators of 5'UTR Stem-Loop Driven Prion Protein mRNA Translation in H4 Neuroglioblastoma Cells. [Related pubchem assays: 1829 (Project Summary), 1814 (Primary HTS)]; format: functional; conditions: Homo sapiens
[3] = target: T2, Calpain-2 catalytic subunit (Sus scrofa, UniProt P43367); test: pig calpain II inhibitor potency, dose response, biochemical, fluorogenic peptide substrate (AID 1420); format: functional
T2 sequence (P43367 whole entry): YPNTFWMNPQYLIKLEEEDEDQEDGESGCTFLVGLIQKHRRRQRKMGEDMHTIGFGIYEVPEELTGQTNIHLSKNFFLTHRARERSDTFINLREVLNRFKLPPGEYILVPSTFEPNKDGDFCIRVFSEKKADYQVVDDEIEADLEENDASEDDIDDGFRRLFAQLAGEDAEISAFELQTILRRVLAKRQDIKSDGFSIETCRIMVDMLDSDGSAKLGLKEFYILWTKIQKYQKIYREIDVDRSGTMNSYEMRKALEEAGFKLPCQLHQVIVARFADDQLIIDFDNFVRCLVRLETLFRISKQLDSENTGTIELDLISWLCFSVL

Large T antigen = Large T antigen (Simian virus 40, UniProt P03070); format: functional, Betapolyomavirus macacae;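 also: Confirmatory-stage PubChem screen for compounds that inhibit SV40 T antigen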
Sequence of Large T antigen (P03070 whole entry): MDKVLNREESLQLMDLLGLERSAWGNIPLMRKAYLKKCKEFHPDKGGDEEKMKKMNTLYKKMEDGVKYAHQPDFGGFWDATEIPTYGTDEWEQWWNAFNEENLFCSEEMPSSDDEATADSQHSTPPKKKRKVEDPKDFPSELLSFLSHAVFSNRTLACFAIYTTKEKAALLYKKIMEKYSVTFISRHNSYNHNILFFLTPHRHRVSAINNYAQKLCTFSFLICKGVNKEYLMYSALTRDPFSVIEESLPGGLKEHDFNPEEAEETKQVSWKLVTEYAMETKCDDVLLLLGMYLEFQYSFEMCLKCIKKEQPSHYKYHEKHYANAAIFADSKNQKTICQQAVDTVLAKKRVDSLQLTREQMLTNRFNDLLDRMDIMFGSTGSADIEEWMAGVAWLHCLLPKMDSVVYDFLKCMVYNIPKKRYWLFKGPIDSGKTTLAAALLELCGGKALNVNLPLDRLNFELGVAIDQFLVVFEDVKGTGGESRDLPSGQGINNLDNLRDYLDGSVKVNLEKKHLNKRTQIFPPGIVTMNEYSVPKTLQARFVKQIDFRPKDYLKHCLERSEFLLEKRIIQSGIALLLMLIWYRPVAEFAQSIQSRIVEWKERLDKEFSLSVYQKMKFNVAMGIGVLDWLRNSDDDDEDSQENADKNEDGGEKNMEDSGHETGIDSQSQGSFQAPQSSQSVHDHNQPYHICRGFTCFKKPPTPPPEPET

[4] = target: Luciferin 4-monooxygenase (Photinus pyralis, UniProt P08659); test: firefly luciferase enzyme inhibitors, dose response, biochemical, luminescence (AID 1891)
Sequence of Luciferin 4-monooxygenase (P08659 whole entry): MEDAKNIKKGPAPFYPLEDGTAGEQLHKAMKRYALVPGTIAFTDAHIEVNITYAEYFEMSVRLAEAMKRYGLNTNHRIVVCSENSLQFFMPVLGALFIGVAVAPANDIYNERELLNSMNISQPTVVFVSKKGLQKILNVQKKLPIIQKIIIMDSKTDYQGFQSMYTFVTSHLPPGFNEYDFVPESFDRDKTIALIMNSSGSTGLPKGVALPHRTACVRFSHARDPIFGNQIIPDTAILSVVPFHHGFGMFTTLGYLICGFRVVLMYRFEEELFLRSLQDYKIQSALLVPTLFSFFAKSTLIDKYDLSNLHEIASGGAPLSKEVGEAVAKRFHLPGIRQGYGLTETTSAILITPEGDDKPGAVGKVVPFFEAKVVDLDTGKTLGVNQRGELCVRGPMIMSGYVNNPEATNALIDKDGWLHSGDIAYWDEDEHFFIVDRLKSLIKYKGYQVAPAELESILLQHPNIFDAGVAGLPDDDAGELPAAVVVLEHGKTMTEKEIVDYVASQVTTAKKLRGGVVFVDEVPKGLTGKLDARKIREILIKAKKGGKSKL

[5] = Luminescence Cell-Based Dose Confirmation HTS to Identify Inhibitors of Platelet Dense Granule Release. [Related pubchem assays: 1663 (Primary HTS), 1678 (Summary of Project)]; format: functional
[6] = target: T3, RNA-binding protein pos-1 (Caenorhabditis elegans, UniProt G5EF15); test: inhibitors of POS-1/mex-3 RNA binding, dose response, biochemical, fluorescence polarization (AID 1964);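 also: purified POS-1 fused to maltose binding protein made in E. coli; potency of compounds blocking POS-1 binding to fluorescent RNA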
T3 sequence (G5EF15 whole entry): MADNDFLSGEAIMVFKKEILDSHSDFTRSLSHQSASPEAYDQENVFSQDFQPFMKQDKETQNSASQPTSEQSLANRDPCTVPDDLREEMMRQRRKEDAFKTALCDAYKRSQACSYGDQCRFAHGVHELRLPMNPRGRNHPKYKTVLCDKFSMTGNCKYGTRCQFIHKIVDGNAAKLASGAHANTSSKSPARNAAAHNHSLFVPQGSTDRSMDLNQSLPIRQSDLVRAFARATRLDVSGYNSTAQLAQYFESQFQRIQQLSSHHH

[7] = target: T4, Zinc finger protein mex-5 (Caenorhabditis elegans, UniProt Q9XUB2); test: MEX-5/TCR-2 RNA interaction inhibitors, dose response, biochemical, C. elegans, fluorescence polarization (AID 1960)
T4 sequence (Q9XUB2 whole entry): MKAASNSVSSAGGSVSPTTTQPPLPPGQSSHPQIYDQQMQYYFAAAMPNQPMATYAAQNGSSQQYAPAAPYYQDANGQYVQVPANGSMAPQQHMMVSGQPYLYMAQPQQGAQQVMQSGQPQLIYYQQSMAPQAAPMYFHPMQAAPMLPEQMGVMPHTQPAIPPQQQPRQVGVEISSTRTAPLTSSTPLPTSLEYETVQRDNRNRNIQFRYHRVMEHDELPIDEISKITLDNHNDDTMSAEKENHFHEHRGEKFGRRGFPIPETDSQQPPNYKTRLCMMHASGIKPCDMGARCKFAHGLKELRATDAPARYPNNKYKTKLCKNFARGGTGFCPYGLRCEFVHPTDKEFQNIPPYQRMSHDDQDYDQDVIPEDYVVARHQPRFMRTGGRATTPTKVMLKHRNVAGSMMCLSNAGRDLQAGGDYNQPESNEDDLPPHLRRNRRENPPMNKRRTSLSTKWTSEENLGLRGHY

[8] = inhibitors of intracellular T. cruzi replication, confirmation, NIH3T3 host cells, beta-gal luminescence (AID 2044); format: functional, cell-based;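 also: intracellular parasites grown in NIH/3T3 mouse fibroblasts as host cells; luminescent beta-galactosidase reporter signal from transgenic T. cruzi replicating inside host cells; inhibitors lower the luminescence signal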
[9] = cytotoxicity toward NIH3T3 fibroblasts, dose response, counter-screen, cell-based, ATP luminescence, mouse fibroblasts (AID 2010); format: functional;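 also: cells exposed to compound for about 90 hours before reading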

Sequence of Cytochrome P450 2C19 (P33261 whole entry): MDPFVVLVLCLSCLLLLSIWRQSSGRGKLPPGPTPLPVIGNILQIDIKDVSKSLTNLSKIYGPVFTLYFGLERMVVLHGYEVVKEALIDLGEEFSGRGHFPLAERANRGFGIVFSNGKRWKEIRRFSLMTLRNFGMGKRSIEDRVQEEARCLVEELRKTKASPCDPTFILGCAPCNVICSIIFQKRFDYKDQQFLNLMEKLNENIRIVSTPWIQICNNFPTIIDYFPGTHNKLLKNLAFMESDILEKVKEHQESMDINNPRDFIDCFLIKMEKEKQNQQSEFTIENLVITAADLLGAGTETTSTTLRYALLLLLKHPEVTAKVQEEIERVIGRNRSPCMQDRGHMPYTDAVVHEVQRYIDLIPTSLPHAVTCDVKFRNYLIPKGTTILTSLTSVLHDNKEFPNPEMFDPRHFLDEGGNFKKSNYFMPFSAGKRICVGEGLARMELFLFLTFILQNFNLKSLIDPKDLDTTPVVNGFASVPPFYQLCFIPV

Cc1ccc(C(=O)NC(=S)Nc2cc(C(F)(F)F)ccc2Cl)cc1
AC50 (Cytochrome P450 2C19): inconclusive | AC50 (Cytochrome P450 1A2): 0.562 µM (inconclusive) | AC50 (Cytochrome P450 2C9): inconclusive

CCC12CN3CC(CC)(CN(C1)C3c1cccnc1)C2=O (configuration not stated)
AC50 (Cytochrome P450 1A2): 28.2 µM (inconclusive) | AC50 (Cytochrome P450 3A4): 4.47 µM (inconclusive) | AC50 (Cytochrome P450 2C9): inconclusive

CCC(=O)N1CCc2nc(-c3ccccc3)sc2C1
EC50 [1]: 7.33 µM (active) | EC50 [2]: 20.4 µM (active) | EC50 (H4): 46.3 µM (active)

COc1ccc(COC(=O)Nc2cc3c(C(F)(F)F)nn(C)c3s2)cc1
IC50 [3]: 14 µM (active)

CN(C)c1nn(C(=O)Nc2ccc(Cl)cc2Cl)cc1-c1ccccc1
IC50 (Large T antigen): 38 µM (active)

Cc1ccc(-c2nnc(CCC(=O)NCC3C4CC5CC(C4)CC3C5)o2)s1 (configuration not stated)
EC50 [1]: 11.6 µM (active) | EC50 [2]: 17.6 µM (active) | EC50 (H4): 20.2 µM (active)

Cc1ccccc1N1C(=O)NC(=O)/C(=C/Nc2ccc(N(C)C)cc2)C1=O
IC50 (Large T antigen): 6.73 µM (active) | AC50 (Cytochrome P450 2C19; read-out: AC50): 22.4 µM (inconclusive) | AC50 (Cytochrome P450 3A4): 0.398 µM (inconclusive)

COc1ccc(C(=O)Nn2cnc3ccccc3c2=O)c(OC)c1
AC50 (Cytochrome P450 2C19; read-out: AC50): 17.8 µM (inconclusive) | AC50 (Cytochrome P450 1A2): 11.2 µM (inconclusive) | AC50 (Cytochrome P450 2C9): inconclusive

Cc1nc(NC(=O)c2ccccc2)sc1-c1csc(Nc2ccc(Cl)cc2)n1
AC50 (Cytochrome P450 1A2): 7.08 µM (inconclusive) | AC50 (Cytochrome P450 2C9): inconclusive

Cc1ccc2nc(N3CCN(C(=O)c4ccco4)CC3)sc2c1
EC50 [1]: 5.76 µM (active) | EC50 [2]: > 120 µM (not active) | EC50 (H4): 34.9 µM (active)

COc1ccccc1OCCN1C(=O)S/C(=C\c2ccco2)C1=O
AC50 (Cytochrome P450 2C9): inconclusive

CCn1cc(NC(=O)Nc2ccccc2C(=O)OC)c(C(N)=O)n1
EC50 [4]: > 112 µM (not active) | EC50 [5]: > 112 µM (not active)

CCOC(=O)C(OC(=O)c1sc(=S)n(C)c1C)C(C)=O (configuration not stated)
EC50 [4]: > 112 µM (not active) | EC50 [5]: > 112 µM (not active)

COC(=O)c1ccc(NC(S)=NC2CC3CCC2C3)cc1 (configuration not stated)
IC50 [3]: 16.4 µM (active)

O=C(NCCCN1CCOCC1)C1Nc2ccc(OC(F)(F)F)cc2C2C=CCC12 (configuration not stated)
EC50 [6]: > 300 µM (not active) | EC50 [7]: > 300 µM (not active)

CCOC(=O)c1ccc(NC(=O)Cn2c(-c3nonc3N)nc3ccccc32)cc1
IC50 [3]: 18.8 µM (not active)

COc1ncc2nc(-c3cn(C)c4ccccc34)c(=O)n(-c3ccccc3)c2n1
AC50 (Cytochrome P450 1A2): 5.01 µM (inconclusive) | AC50 (Cytochrome P450 3A4): 3.16 µM (inconclusive) | AC50 (Cytochrome P450 2C9): inconclusive

O=C(NC1CC1)C1Nc2ccc(OC(F)(F)F)cc2C2C=CCC12 (configuration not stated)
EC50 [6]: > 300 µM (not active) | EC50 [7]: > 300 µM (not active)

CCC1CCCCN1CCCNC(=O)Cn1c2ccccc2c2nc(=O)cc(C)n21 (configuration not stated)
EC50 [1]: > 120 µM (not active) | EC50 [2]: > 120 µM (not active) | EC50 (H4): > 120 µM (not active)

O=C(OCCc1ccccc1)c1cc(O)c(O)c(O)c1
EC50 [6]: > 300 µM (not active) | EC50 [7]: 29.6 µM (active) | IC50 (Large T antigen): > 100 µM (active)

Cc1ccc(-c2nc3ncccn3c2NC(=O)C2CC2)cc1
EC50 [4]: > 112 µM (not active) | EC50 [5]: > 112 µM (not active) | AC50 (Cytochrome P450 2C19): inconclusive | AC50 (Cytochrome P450 1A2): 15.8 µM (inconclusive)

COc1ccc(C(=O)COC(=O)c2cc(O)nc3ccccc23)c(OC)c1
EC50 [1]: 8.87 µM (active) | EC50 [2]: 54 µM (active) | EC50 (H4): 20.7 µM (active)

Cc1ccccc1N1C(=O)NC(=O)/C(=C\c2cc(C)n(C)c2C)C1=O
EC50 [6]: > 300 µM (not active) | EC50 [7]: > 300 µM (not active)

COc1ccccc1/C=C(/C(=O)OCC(=O)Nc1ccccc1C)c1ccccc1
IC50 [3]: 9.36 µM (not active)

COc1cccc(-n2cnc3sc(-c4ccccc4)cc3c2=O)c1
EC50 [1]: 0.185 µM (active) | EC50 [2]: 0.124 µM (active) | EC50 (H4): 0.136 µM (active)

Cc1ccc(C(=O)C2CCN(CC(=O)Nc3ccc4c(c3)OCCO4)CC2)cc1
EC50 [4]: > 112 µM (not active) | EC50 [5]: > 112 µM (not active)

O=C(NC1CCCC1)c1csc2c1CCCC2
EC50 [4]: > 112 µM (not active) | EC50 [5]: > 112 µM (not active)

COc1ccc(N2CCC(CN=C(S)Nc3ccc(C)cc3C)C2)cc1 (configuration not stated)
IC50 (Large T antigen): 11 µM (active)

COc1ccc(-c2nc3cnc(N4CCOCC4)nc3n(C[C@H]3CCCO3)c2=O)cc1
AC50 (Cytochrome P450 1A2): 5.01 µM (inconclusive) | AC50 (Cytochrome P450 2C9): inconclusive

CC1CN=C(Nc2ccc(N(C)C)cc2)S1 (configuration not stated)
IC50 (Large T antigen): 9.27 µM (active)

CC1OC(Oc2c(-c3cc(O)c(O)c(O)c3)oc3cc(O)cc(O)c3c2=O)C(O)C(O)C1O (configuration not stated)
EC50 [6]: 18 µM (active) | EC50 [7]: 17.2 µM (active)

COc1cc(C2C(C#N)=C(N)OC3=C2C(=O)CC(C)(C)C3)ccc1OCCN1CCOCC1 (configuration not stated)
EC50 [6]: > 300 µM (not active) | EC50 [7]: > 300 µM (not active)

CC(=O)C1=C(C)NC(SCC(=O)c2ccccc2)=C(C#N)C1c1ccco1 (configuration not stated)
EC50 [1]: 11 µM (active) | EC50 [2]: 26.5 µM (active) | EC50 (H4): 19.5 µM (active)

NS(=O)(=O)c1cc(Br)c(/N=N\c2ccc(O)c3ncccc23)c(Br)c1
AC50 (Cytochrome P450 1A2): 1.26 µM (inconclusive) | AC50 (Cytochrome P450 2C9): inconclusive

CC(=O)NS(=O)(=O)c1ccc(/N=c2\ssc3c2-c2cc(C)ccc2NC3(C)C)cc1
IC50 (Large T antigen): > 100 µM (active)

Cc1sc(N/N=C/C=C/c2ccccc2)nc1-c1ccccc1
EC50 [8]: 2.67 µM (active) | EC50 [9]: 13.8 µM (active) | AC50 (Cytochrome P450 1A2): 3.55 µM (inconclusive) | AC50 (Cytochrome P450 2C9): inconclusive

CCOC(=O)c1ccc(/N=c2\scc(C)n2CC)cc1
IC50 [3]: > 50 µM (not active)

O=C(N/N=C/C(Br)=C/c1ccccc1)C1CC1
EC50 [1]: 18.7 µM (active) | EC50 [2]: 60.3 µM (active) | EC50 (H4): 15.8 µM (active)

CCOc1cc(/C=N/NC(=O)c2ccncc2)ccc1OS(C)(=O)=O
IC50 [3]: < 0.4 µM (not active)

c1ccc2[nH]c(-c3ccc4c(c3)OCO4)nc2c1
EC50 [4]: 1.16 µM (active) | EC50 [5]: 6.52 µM (active)
